Source: US20220273643A1, “METHOD OF TREATING KRAS-ASSOCIATED CANCERS” (THE REGENTS OF THE UNIVERSITY OF MICHIGAN, priority 2019, published 2022)

What was measured:
EGFR [1] = molecular target: T1, EGFR (Homo sapiens, UniProt P00533); test: EGF-induced EGFR dimerization; format: cell-based
T1 construct: endogenous in cells; host or cells: HCT-116, Panc1 (inferred; the sentence holding the result names no cells)

lung lesion = test: genetically engineered KRAS-LSL-G12D mouse model of lung cancer; format: in vivo, mice; details: 30 mg/kg oral gavage Monday-Friday for 4 weeks; paired t-test p=0.0577
Method: The efficacy of DGD1202 treatment was assessed for KRAS-mutant lung tumor initiation and progression. A genetically engineered KRAS-LSL-G12D mouse model of lung cancer was used. This mouse carries a Lox-Stop-Lox (LSL) sequence followed by the KRAS G12D point mutation allele. Tumorigenesis was initiated by intra-nasal delivery of Adenovirus-Cre particles (1.5×10e^7 pfu) that transduced lung epithelial cells to express Cre recombinase that deletes the LSL cassette and allows the expression of the mutant KRAS oncogenic protein.
Eight weeks after viral delivery, the mice were treated either with vehicle or with DGD1202 on a Monday-Friday schedule for 4 weeks at a dose of 30 mg/kg oral gavage. When mice were 20-week old, the lungs were harvested and the H&E sections underwent morphological assessment. The histopathological spectrum of the lung lesions was noted and recorded in a double-blinded fashion for hyperplasia—alveolar or bronchial, the pattern of hyperplasia, adenoma, hyperplasia with focal atypia, bronchial dysplasia, adenomas, and atypical adenomatous hyperplasia. The percentage of lung lesion and total area of lung lesion from each lobe in every sample from both treatment group were scored and are shown in FIG. 6.

solubility in water = format: physicochemical; details: pH 3.5
Panc1 = test: immunoblotting Panc1; format: cell-based; details: Panc1, KRAS G12D specific antibody; preliminary data
Method: (§1) FIG. 3 depicts the effect of DGD1202 on EGFR, KRAS and downstream signaling. (A). HCT-116 (colorectal cancer) cells were treated with DGD1202 for 5 h or 15 h, and whole cell lysates were probed with listed antibodies. (B). Evaluation of DGD1202 effects against the KRAS G12D driven pancreatic cell line (Panc1) tumor model; effect of treatment on the steady-state level of EGFR and mtKRAS was determined by immunoblotting; and GAPDH expression was assessed as a loading control.
(§2) The effect of DGD1202 on EGFR, ERK and AKT was also evaluated by immunoblotting. The preliminary data for DGD1202 in mutant KRAS driven HCT-116 (CRC) and Panc1 (Pancreas) cell lines are shown in FIG. 3A and FIG. 3B, respectively.
(§3) Cells were plated in 60-mm dishes at a density of 3×10^5 cells per dishes and incubated overnight or to 70% confluence. The cells were treated with the vehicle (DMSO) or DGD1202 and then were harvested at various time points. The pellets were washed twice with ice-cold PBS and re-suspended in lysis buffer for 30 min. After sonication, particulate material was removed by centrifugation at 13,000 rpm for 10 min at 4° C. […] After three additional washes in Tris-buffered saline, bound antibody was detected by enhanced chemiluminescence plus reagent. For quantification of relative protein levels, immunoblot films were scanned and analyzed using Image J 1.32j software. […]

HCT-116 [2] = test: immunoblotting HCT-116; format: cell-based; details: preliminary data
Method: as §1, §2, §3

[3] = system: cetuximab-resistant cell-lines; test: IC50 against cetuximab-resistant cell-lines; format: cell-based; details: cetuximab-resistant cell-lines expressing mutant KRAS
EGFR [4] = molecular target: T1, EGFR; test: EGFR degradation; format: cell-based; details: instead of inhibiting the activity
NCI-H1975-AZR = NCI-H1975-AZR (osimertinib resistant) xenograft; format: in vivo; details: SCID mice, 75 mg/kg oral gavage daily for two weeks
Method: FIG. 5 depicts the effect of DGD1202 on osimertinib resistant, NCI-H1975 lung cancer xenografts. (A). SCID mice bearing NCI-H1975 osimertinib resistant xenografts were treated with DGD1202 (75 mg/kg, daily, PO). The arrow marks the initiation of treatment with DGD1202. Change in tumor volume is plotted. (B). The effect of DGD1202 treatment on EGFR was assessed in tumors harvested 3 days post DGD1202 treatment.
A study was conducted to evaluate the efficacy of DGD1202 in mutant EGFR driven lung cancer model (FIG. 5).
Briefly, SCID mice bearing locally advanced NCI-H1975-AZR (osimertinib resistant) xenograft were treated daily with oral gavage of DGD1202 (75 mg/kg) for two weeks. Tumor volumes were measured using calipers at least three times a week. The effect of DGD1202 treatment on EGFR expression was determined by IHC staining 3-days after initiation of treatment.

HCT-116 [5] = test: clonogenic survival assay HCT-116; format: cell-based; details: KRAS G13D driven cetuximab-resistant colorectal cell-line; FIG. 2
Method: A study was conducted to evaluate the activity of DGD1202 in a KRAS G13D driven cetuximab-resistant colorectal cell-line (HCT-116) using clonogenic survival assays (FIG. 2) and in a pancreatic cancer cell line (Panc1) that contains KRAS G12D mutation (FIG. 3B).
More specifically, cells were plated at clonal density in 60 or 100 mm culture dishes in triplicate one day before treatment with a range of concentrations (e.g., 0-10 micro M). Eight to twelve days later, cells were fixed with acetic acid/methanol (1:7, v/v), stained with crystal violet (0.5%, w/v), and counted using a stereomicroscope. Drug cytotoxicity (surviving drug-treated cells) was measured and normalized to the survival of the untreated control cells.

[6] = system: EGFR-driven osimertinib resistant cell lines; test: activity in osimertinib resistant cell lines; format: cell-based
[7] = system: PanIn (pancreatic intraepithelial neoplasia); test: KRAS G12D driven pancreatic tumor model (KC mice); format: in vivo; details: 30 mg/kg oral gavage daily for 5 weeks, scored at week 11
Method: A study was conducted to evaluate the efficacy of DGD1202 in KRAS G12D driven pancreatic tumor model.
More specifically, 6-week old KC mice were treated with DGD1202 via oral gavage (30 mg/kg body weight, daily) for 5 weeks.

[8] = liver microsomal stability; format: in vitro ADME; details: compared to two other structurally close compounds
bioavailability = format: in vivo; details: systemic injection and oral administration
purified EGFR = purified EGFR (Homo sapiens, UniProt P00533); test: direct binding to purified EGFR
Sequence of purified EGFR (P00533 25-1210): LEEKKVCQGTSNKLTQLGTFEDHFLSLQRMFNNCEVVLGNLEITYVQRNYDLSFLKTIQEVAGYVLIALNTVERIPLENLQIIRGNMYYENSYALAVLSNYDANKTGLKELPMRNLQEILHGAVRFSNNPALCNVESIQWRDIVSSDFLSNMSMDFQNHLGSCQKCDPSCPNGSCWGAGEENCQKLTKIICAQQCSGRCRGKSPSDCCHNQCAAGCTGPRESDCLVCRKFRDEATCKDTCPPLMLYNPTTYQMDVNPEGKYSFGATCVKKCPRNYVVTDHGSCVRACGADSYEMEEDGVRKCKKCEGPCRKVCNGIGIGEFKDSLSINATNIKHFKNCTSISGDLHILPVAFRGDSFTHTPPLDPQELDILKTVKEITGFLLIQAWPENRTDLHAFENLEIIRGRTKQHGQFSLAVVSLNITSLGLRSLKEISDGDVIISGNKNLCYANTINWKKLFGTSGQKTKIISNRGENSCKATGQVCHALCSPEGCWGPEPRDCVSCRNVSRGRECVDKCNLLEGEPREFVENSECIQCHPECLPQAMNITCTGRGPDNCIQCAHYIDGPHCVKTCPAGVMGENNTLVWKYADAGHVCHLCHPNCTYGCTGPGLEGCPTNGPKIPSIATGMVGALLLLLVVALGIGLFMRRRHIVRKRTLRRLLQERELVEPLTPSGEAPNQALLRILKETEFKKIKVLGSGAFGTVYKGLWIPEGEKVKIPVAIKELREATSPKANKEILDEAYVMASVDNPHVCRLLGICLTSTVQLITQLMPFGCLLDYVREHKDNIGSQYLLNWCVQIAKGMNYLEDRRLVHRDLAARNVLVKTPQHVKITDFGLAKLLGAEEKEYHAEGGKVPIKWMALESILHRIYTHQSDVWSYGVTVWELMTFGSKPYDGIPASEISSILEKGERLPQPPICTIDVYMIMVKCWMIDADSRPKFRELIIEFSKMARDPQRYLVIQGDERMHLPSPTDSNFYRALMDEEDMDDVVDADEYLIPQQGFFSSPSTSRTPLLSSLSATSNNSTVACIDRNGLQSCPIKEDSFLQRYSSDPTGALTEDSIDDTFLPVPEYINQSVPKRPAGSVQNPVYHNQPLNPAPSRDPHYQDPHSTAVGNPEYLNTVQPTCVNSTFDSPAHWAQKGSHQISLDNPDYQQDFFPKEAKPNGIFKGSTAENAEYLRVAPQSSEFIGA

UMSCC74B = format: in vivo
Method: FIG. 1 depicts the effect of DGD1202 in mutant KRAS (and EGFR co-driven) head and neck (UMSCC74B) tumor model.
Tumor-bearing mice were treated with DGD1202 via oral gavage in 30 mg/kg dose biweekly for one week. This dose was selected based on its single-dose PK profile.

[9] = system: immortalized cells of non-cancer origin; test: IC50 in immortalized cells of non-cancer origin; format: cell-based

T1 sequence (P00533 25-1210): as above

For CN1CCC2(CC1)N=C(SCC(=O)Nc1cnc3ccccc3c1)C(c1ccc(Br)cc1)=N2 [DGD1202, 2-((3-(4-bromophenyl)-8-methyl-1,4,8-triazaspiro[4.5]deca-1,3-dien-2-yl)thio)-N-(quinolin-3-yl)acetamide], the “EGF-induced EGFR dimerization” value (EGFR [1]) was “blocks EGF-induced EGFR dimerization”, the “percentage of lung lesion and total area of lung lesion vs vehicle” value (lung lesion) was “tend towards significance” and the solubility in water (solubility in water) was “soluble in water at pH 3.5”. The “EGFR and mtKRAS levels by immunoblotting” value (Panc1) was “affected both EGFR and mtKRAS (Panc1) levels”, the “EGFR and KRAS levels by immunoblotting” value (HCT-116 [2]; HCT116, PAN-RAS antibody, 5 h or 15 h) was “affected both EGFR and mtKRAS” and the “downstream signaling pAKT and pERK by immunoblotting” value (HCT-116 [2]; HCT-116) was “affected downstream signaling in pAKT and pERK”. For the same compound, the IC50 [3] was 0.5 to 2.2 µM, the EGFR degradation (EGFR [4]) was “degrades EGFR” and the “efficacy on tumor volume” value (NCI-H1975-AZR) was “exhibited efficacy”. For the same compound, the clonogenic survival (HCT-116 [5]) was “effective”, the “activity in EGFR-driven osimertinib resistant cell lines” value [6] was “selectively active” and the “effect on PanIn (pancreatic intraepithelial neoplasia)” value [7] was “significantly reduced propensity for developing PanIn”. For the same compound, the liver microsomal stability [8] was “much better liver microsomal stability”, the bioavailability (bioavailability) was “bioavailable” and the “binding to purified EGFR” value (purified EGFR) was “directly binds to purified EGFR”. For the same compound, the “safety of dose and regimen” value (UMSCC74B; 30 mg/kg oral gavage, tumor-bearing mice) was “safe”, the tumor growth (UMSCC74B; UMSCC74B tumor-bearing mice, DGD1202 30 mg/kg oral gavage, cetuximab 100 mg/kg (FIG. 1), P<0.001 for DGD1202) was “significant tumor growth suppression” and the IC50 [9] was > 20 µM.
